Test results published in patent publication US9169224B2, “Piperazinyl and piperidinyl ureas as modulators of fatty acid amide hydrolase” (Janssen Pharmaceutica NV, priority 2004, dated 2015).

What was measured:
FAAH [1] = biological target: T1, FAAH (Homo sapiens (Human), UniProt O00519); test: Assay Method 2: FAAH assay, cells transfected with human FAAH; format: biochemical; conditions: T84 or human FAAH-transfected SK-N-MC cell homogenate, 3H-AEA tracer 80 nM, 1 h at rt
Protocol: Assay Method 2 A. Transfection of Cells with Human FAAH
(§1) A 10-cm tissue culture dish with a confluent monolayer of SK-N-MC cells was split 2 days (d) prior to transfection. Using sterile technique, the media was removed and the cells were detached from the dish by the addition of trypsin. One fifth of the cells were then placed onto a new 10-cm dish. Cells were grown in a 37° C. incubator with 5% CO2 in Minimal Essential Media Eagle with 10% Fetal Bovine Serum. After 2 d, cells were approximately 80% confluent. These cells were removed from the dish with trypsin and pelleted in a clinical centrifuge. The pellet was re-suspended in 400 μL complete media and transferred to an electroporation cuvette with a 0.4 cm gap between the electrodes. Supercoiled human FAAH cDNA (1 pg) was added to the cells and mixed. The voltage for the electroporation was set at 0.25 kV, and the capacitance was set at 960 μF. After electroporation, the cells were diluted into complete media (10 mL) and plated onto four 10-cm dishes. Because of the variability in the efficiency of electroporation, four different concentrations of cells were plated. The ratios used were 1:20, 1:10, and 1:5, with the remainder of the cells being added to the fourth dish. The cells were allowed to recover for 24 h before adding the selection media (complete media with 600 μg/mL G418). After 10 d, dishes were analyzed for surviving colonies of cells. Dishes with well-isolated colonies were used. Cells from individual colonies were isolated and tested.
(§2) T84 frozen cell pellets or transfected SK-N-MC cells (contents of 1×15 cm culture dishes) were homogenized in 50 mL of FAAH assay buffer (125 mM Tris, 1 mM EDTA, 0.2% Glycerol, 0.02% Triton X-100, 0.4 mM Hepes, pH 9). The assay mixture consisted of 50 μL of the cell homogenate, 10 μL of the test compound, and 40 pt of anandamide [1-^3H-ethanolamine] (^3H-AEA, Perkin-Elmer, 10.3 Ci/mmol), which was added last, for a final tracer concentration of 80 nM. The reaction mixture was incubated at rt for 1 h. During the incubation, 96-well Multiscreen filter plates (catalog number MAFCNOB50; Millipore, Bedford, Mass., USA) were loaded with 25 μL of activated charcoal (Multiscreen column loader, catalog number MACL09625, Millipore) and washed once with 100 μL of MeOH. Also during the incubation, 96-well DYNEX MicroLite plates (catalog number NL510410) were loaded with 100 μL of MicroScint40 (catalog number 6013641, Packard Bioscience, Meriden, Conn., USA). After the 1 h incubation, 60 μL of the reaction mixture were transferred to the charcoal plates, which were then assembled on top of the DYNEX plates using Centrifuge Alignment Frames (catalog number MACF09604, Millipore). The unbound labeled ethanolamine was centrifuged through to the bottom plate (5 min at 2000 rpm), which was preloaded with the scintillant, as described above. The plates were sealed and left at rt for 1 h before counting on a Hewlett Packard TopCount.

FAAH [2] = biological target: T1, FAAH; test: Assay Method 1: FAAH assay, T84 cell homogenate, 3H-anandamide hydrolysis; format: biochemical; conditions: 3H-AEA tracer 200 nM, 1 h at rt
How it was run: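 Homogenate of human T84 cells in pH 9 Tris/EDTA buffer with 0.02% Triton X-100 was incubated with compound and 200 nM final 3H-anandamide for 1 h at rt. Released [3H]ethanolamine was separated from substrate through activated charcoal by centrifugation and quantified by scintillation counting.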

rat FAAH = rat FAAH (Rattus norvegicus (Rat), UniProt P97612); test: Assay Method 3: FAAH assay, cells transfected with rat FAAH; format: biochemical; conditions: T84 or rat FAAH-transfected SK-N-MC cell homogenate, 3H-AEA tracer 80 nM, 1 h at rt
Protocol: Assay Method 3 A. Transfection of Cells with Rat FAAH
as §1, with “rat” for “human”, “μg)” for “pg)”
as §2, with “μL” for “pt”

rats [3] = conditions: WO 04/033652; cited from earlier work
FAAH [4] = biological target: T1, FAAH; conditions: WO 04/033652; cited from earlier work
rats [5] = conditions: Kathuria 2003; cited from earlier work
rats [6] = conditions: rat, Kathuria 2003; cited from earlier work
CREAE mice = conditions: Baker 2001; cited from earlier work

Chain of rat FAAH (P97612 whole entry): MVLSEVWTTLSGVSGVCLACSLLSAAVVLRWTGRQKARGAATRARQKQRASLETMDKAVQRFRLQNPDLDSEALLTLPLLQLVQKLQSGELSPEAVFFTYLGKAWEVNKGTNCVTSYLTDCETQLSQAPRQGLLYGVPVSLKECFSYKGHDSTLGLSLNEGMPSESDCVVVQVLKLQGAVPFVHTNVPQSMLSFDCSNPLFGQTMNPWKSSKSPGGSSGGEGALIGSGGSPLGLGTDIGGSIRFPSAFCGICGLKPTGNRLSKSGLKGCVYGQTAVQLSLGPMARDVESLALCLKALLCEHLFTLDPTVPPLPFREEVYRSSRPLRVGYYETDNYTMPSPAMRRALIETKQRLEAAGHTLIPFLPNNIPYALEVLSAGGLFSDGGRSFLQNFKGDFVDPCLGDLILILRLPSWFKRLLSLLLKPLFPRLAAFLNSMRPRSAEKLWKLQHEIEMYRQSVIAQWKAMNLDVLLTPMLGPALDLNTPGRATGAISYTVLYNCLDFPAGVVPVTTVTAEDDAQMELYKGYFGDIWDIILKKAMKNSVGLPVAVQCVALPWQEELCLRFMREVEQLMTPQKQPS
T1 sequence (O00519 whole entry): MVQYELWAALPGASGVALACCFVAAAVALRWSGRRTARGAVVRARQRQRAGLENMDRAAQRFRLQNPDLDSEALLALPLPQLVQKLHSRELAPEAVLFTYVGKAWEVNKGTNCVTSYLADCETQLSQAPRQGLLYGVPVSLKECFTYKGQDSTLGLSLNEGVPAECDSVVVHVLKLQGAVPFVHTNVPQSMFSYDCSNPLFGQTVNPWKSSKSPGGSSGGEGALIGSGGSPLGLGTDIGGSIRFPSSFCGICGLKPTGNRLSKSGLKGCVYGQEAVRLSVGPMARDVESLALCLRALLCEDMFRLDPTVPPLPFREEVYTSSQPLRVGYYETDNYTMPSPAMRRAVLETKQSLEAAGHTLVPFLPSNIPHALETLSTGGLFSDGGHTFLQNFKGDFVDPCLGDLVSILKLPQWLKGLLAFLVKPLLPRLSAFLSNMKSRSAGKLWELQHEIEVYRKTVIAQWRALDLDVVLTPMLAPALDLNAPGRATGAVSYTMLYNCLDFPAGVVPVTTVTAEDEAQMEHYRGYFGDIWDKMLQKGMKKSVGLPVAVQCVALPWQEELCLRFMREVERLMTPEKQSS

IC50 (FAAH [1]) [nM]	IC50 (FAAH [2]) [nM]	IC50 (rat FAAH) [nM]	Structure (SMILES)	also measured
19	31	180	O=C(Nc1ccccc1)N1CCN(Cc2ccc(Br)c(Br)c2)CC1 [Example 21, 4-(3,4-Dibromo-benzyl)-piperazine-1-carboxylic acid phenylamide]	
220	130	6500	O=C(Nc1ccc(F)cc1)N1CCN(Cc2cnc3ccccc3c2)CC1 [Example 98, 4-Quinolin-3-ylmethyl-piperazine-1-carboxylic acid (4-fluoro-phenyl)-amide]	
16	21	50	O=C(Nc1ccccc1)N1CCN(Cc2ccc3ccccc3c2O)CC1 [Example 59, 4-(1-Hydroxy-naphthalen-2-ylmethyl)-piperazine-1-carboxylic acid phenylamide]	
			O=C(CCCCCCc1ccccc1)c1ncc(-c2ccccn2)o1 [OL-135]	analgesic activity (rats [3]): analgesic activity; inhibition of FAAH (FAAH [4]): potent inhibitor of FAAH
3000	1300	10000	O=C(Nc1ccccc1)N1CCN(Cc2ccccc2O)CC1 [Example 41, 4-(2-Hydroxy-benzyl)-piperazine-1-carboxylic acid phenylamide]	
100	87	290	O=C(Nc1ccccc1)N1CCN(Cc2ccc3c(c2)OC(F)(F)O3)CC1 [Example 52, 4-(2,2-Difluoro-benzo[1,3]dioxol-5-ylmethyl)-piperazine-1-carboxylic acid phenylamide]	
330	290	410	O=C(Nc1ccccc1)N1CCN(Cc2cc(Br)ccc2O)CC1 [Example 34, 4-(5-Bromo-2-hydroxy-benzyl)-piperazine-1-carboxylic acid phenylamide]	
380	220	10000	CC(C)c1ccc(CN2CCN(C(=O)Nc3ccccc3)CC2)cc1 [Example 32, 4-(4-Isopropyl-benzyl)-piperazine-1-carboxylic acid phenylamide]	
			NC(=O)c1cccc(-c2cccc(OC(=O)NC3CCCCC3)c2)c1 [URB-597]	efficacy in anxiety model (rats [5]): efficacy; analgesic efficacy (rats [6]): analgesic efficacy
			CCCCCCCCCCCCCCCCS(=O)(=O)F [AM374]	spasticity (CREAE mice): significantly reduce spasticity
